Assay [1] relates to S. aureus Mu50. In words: Bacteriostatic effect, S. aureus Mu50. The settings on record: for MIC: Staphylococcus aureus; for Bacteriostatic MIC95, S. aureus Mu50: Table 2.
For assay [2], the system named is B. anthracis Sterne. In words: microbe, parasite or virus in culture. The settings on record: for MIC: Bacillus anthracis, read-out: Bacteriostatic MIC95, B. anthracis Sterne. In kind it is cell-based.
The target in assay [3] is EcSecA (Escherichia coli, UniProt P10408). In words: cell-based.
Sequence of EcSecA (P10408 whole entry): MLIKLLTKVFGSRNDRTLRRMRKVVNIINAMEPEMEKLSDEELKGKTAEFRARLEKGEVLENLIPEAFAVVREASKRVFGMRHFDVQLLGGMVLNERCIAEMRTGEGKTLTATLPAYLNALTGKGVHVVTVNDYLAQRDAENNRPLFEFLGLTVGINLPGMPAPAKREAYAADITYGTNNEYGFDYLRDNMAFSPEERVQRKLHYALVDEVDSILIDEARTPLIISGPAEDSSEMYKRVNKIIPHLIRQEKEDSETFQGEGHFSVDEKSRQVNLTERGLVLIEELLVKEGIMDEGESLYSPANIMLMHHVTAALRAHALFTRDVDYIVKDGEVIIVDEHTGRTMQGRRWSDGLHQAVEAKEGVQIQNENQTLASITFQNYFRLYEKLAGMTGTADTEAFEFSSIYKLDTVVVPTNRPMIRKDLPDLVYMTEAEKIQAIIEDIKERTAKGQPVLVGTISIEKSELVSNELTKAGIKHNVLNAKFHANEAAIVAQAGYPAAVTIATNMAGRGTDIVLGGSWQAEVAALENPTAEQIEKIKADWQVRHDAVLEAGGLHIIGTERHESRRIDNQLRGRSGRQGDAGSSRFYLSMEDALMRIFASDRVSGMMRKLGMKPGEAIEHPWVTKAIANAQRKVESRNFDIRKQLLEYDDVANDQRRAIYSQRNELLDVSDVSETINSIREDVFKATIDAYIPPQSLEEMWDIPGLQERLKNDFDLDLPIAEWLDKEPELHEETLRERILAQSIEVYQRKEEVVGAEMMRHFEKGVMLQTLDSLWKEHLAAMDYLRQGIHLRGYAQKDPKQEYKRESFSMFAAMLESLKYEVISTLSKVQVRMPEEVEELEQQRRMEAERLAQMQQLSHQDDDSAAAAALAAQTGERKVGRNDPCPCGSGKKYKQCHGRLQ
Assay [4] concerns the target BsSecA (Bacillus subtilis, UniProt P28366). Description: cell-based. Details: species or system B. subtilis. The settings on record: Ion channel, IC50, BsSecA, Table 5.
Assay [5] has as its system B. subtilis 168. Description: Bacteriostatic effect, liquid microdilution, B. subtilis 168. In kind it is cell-based. The note with it: Bacillus subtilis, Example 2. For orientation: In broth dilution the organism is exposed to a series of concentrations in liquid medium.
Where [6] appears, read: MU50, read-out: Bacteriostatic MIC95, S. aureus Mu50, Table 2.
The mark [7] stands for this setting: MU50, read-out: Bacteriostatic effect MIC, S. aureus Mu50, Table 10 and Example 4.
Setting [8] is: Ion channel, IC50, EcSecA, Table 5.
The mark [9] stands for this setting: MU50, read-out: MIC95 against drug resistant S. aureus Mu50.

Broadly, the pIC50 is the IC50 on a negative log10 scale, so that one unit is a factor of ten. Read a high pIC50 as a low IC50.

pIC50: −log10 of the molar value. Values after ≈ are worked out from the molar mass of the structure shown. Read-outs that look alike come from different tables or passages of the source.

Sequence of BsSecA (P28366 whole entry): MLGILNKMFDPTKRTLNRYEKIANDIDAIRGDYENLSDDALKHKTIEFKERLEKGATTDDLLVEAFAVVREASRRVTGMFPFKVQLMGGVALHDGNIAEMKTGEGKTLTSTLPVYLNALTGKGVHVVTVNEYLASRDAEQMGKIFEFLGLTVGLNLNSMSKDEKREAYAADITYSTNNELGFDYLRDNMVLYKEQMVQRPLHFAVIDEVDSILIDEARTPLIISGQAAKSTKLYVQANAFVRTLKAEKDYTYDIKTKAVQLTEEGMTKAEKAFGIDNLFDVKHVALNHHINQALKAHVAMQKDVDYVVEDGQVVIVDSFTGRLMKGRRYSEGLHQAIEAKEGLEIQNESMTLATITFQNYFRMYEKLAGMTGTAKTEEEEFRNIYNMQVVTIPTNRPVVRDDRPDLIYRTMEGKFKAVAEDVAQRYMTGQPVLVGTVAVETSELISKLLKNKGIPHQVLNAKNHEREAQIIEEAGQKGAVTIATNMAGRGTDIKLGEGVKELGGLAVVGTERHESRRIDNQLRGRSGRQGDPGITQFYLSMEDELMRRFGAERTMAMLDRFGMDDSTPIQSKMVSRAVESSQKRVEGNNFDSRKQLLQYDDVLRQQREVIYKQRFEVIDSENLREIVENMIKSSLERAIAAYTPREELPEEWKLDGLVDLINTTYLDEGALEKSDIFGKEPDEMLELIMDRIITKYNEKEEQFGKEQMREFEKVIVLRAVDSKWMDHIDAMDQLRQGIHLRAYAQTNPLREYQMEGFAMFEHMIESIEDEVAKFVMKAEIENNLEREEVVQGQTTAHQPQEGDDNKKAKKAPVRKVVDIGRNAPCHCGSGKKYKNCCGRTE

Take `CC1(C)S[C@@H]2[C@H](NC(=O)[C@H](N)c3ccccc3)C(=O)N2[C@H]1C(=O)O` [Ampicillin]: the values for the MIC in assay [1] (setting [6]), in assay [1] (setting [7]) and in assay [2] were 7.8 µg/mL, 1000 µg/mL and over 20 µg/mL, respectively.

With `O=C(N[C@H](CO)[C@H](O)c1ccc([N+](=O)[O-])cc1)C(Cl)Cl` [Chloramphenic], in assay [1], the “Bacteriostatic MIC95, S. aureus Mu50” value is over 40 µg/mL. Also, the “Bacteriostatic MIC95, B. anthracis Sterne” value in assay [2] was 10 µg/mL.

Turning to `Oc1ccc2c(c1)Oc1cc(O)ccc1C2C1CCCC1` [Compound 22a, 9-Cyclopentyl-9H-xanthene-3,6-diol], the negative logarithm of the IC50 (pIC50) was 5.47 in assay [3] (setting [8]) and 5.52 in assay [4]. Moreover, the MIC in assay [5] amounted to 25 µM (≈ 7.06 µg/mL).

As for `CC(C)C1c2ccc(O)cc2Oc2cc(O)ccc21` [Compound 22b, 9-Isopropyl-9H-xanthene-3,6-diol], the figures for the pIC50 in assay [3] and in assay [4] were 5.37 and 5.31, respectively. The MIC in assay [5] is 75 µM (≈ 19.2 µg/mL).

Turning to `CCCCCCC1c2ccc(O)cc2Oc2cc(O)ccc21` [Compound 22c, 9-Hexyl-9H-xanthene-3,6-diol], the pIC50 is 5.64 in assay [3] (setting [8]) and 5.60 in assay [4]. This molecule also came in with an MIC in assay [5] of 13 µM (≈ 3.88 µg/mL).

Regarding `Oc1c(Br)cc2c(c1Br)Oc1c(cc(Br)c(O)c1Br)C2C1CCCC1` [Compound 23a, 2,4,5,7-Tetrabromo-9-cyclopentyl-9H-xanthene-3,6-diol], the pIC50 in assay [3] is 5.64; in assay [4], 5.62. The same molecule registered an MIC in assay [5] of 22 µM (≈ 13.2 µg/mL).

For the molecule `Oc1c(I)cc2c(c1I)Oc1c(cc(I)c(O)c1I)C2C1CCCC1` [Compound 23b, 9-Cyclopentyl-2,4,5,7-tetraiodo-9H-xanthene-3,6-diol], the figures for the pIC50 in assay [3] and in assay [4] were 5.60 and 5.42, respectively. In assay [5], this molecule displayed an MIC of 6 µM (≈ 4.72 µg/mL).

Take `CC[C@H]1OC(=O)[C@H](C)[C@@H](O[C@H]2C[C@@](C)(OC)[C@@H](O)[C@H](C)O2)[C@H](C)[C@@H](O[C@@H]2O[C@H](C)C[C@H](N(C)C)[C@H]2O)[C@](C)(O)C[C@@H](C)C(=O)[C@H](C)[C@@H](O)[C@]1(C)O` [Erythromycin]: the MIC in assay [1] (setting [6]) was over 500 µg/mL; in assay [1] (setting [7]), over 1250 µg/mL; in assay [1] (setting [9]), over 100 µM; in assay [2] it was 0.3 µg/mL (≈ 0.409 µM).

Regarding `NC[C@H]1O[C@H](O[C@H]2[C@H](O)[C@@H](O[C@H]3O[C@H](CO)[C@@H](O)[C@H](N)[C@H]3O)[C@H](N)C[C@@H]2N)[C@H](O)[C@@H](O)[C@@H]1O` [Kanamycin], the MIC is 1000 µg/mL in assay [1] (setting [7]) and over 100 µM in assay [1] (setting [9]).

As for `CCn1cc(C(=O)O)c(=O)c2cc(F)c(N3CCNCC3)cc21` [Norfloxacin], the MIC in assay [1] (setting [7]) was 250 µg/mL.

Regarding `CO[C@H]1/C=C/O[C@@]2(C)Oc3c(C)c(O)c4c(O)c(c(/C=N/N5CCN(C)CC5)c(O)c4c3C2=O)NC(=O)/C(C)=C\C=C\[C@H](C)[C@H](O)[C@@H](C)[C@@H](O)[C@@H](C)[C@H](OC(C)=O)[C@@H]1C` [Rifampicin], the MIC in assay [1] (setting [7]) was over 1000 µg/mL.

As for `CN(C)[C@@H]1C(O)=C(C(N)=O)C(=O)[C@@]2(O)C(O)=C3C(=O)c4c(O)cccc4[C@@](C)(O)[C@H]3C[C@@H]12` [Tetracycline], the MIC in assay [1] (setting [6]) was 200 µg/mL; in assay [1] (setting [7]), 62.5 µg/mL; in assay [1] (setting [9]) it was over 100 µM; in assay [2], 0.1 µg/mL (≈ 0.225 µM).

Regarding `CN[C@H](CC(C)C)C(=O)N[C@H]1C(=O)N[C@@H](CC(N)=O)C(=O)N[C@H]2C(=O)N[C@H]3C(=O)N[C@H](C(=O)N[C@H](C(=O)O)c4cc(O)cc(O)c4-c4cc3ccc4O)[C@H](O)c3ccc(c(Cl)c3)Oc3cc2cc(c3O[C@@H]2O[C@H](CO)[C@@H](O)[C@H](O)[C@H]2O[C@H]2C[C@](C)(N)[C@H](O)[C@H](C)O2)Oc2ccc(cc2Cl)[C@H]1O` [Vancomycin], the MIC amounted to 5 µg/mL in assay [1] (MU50, read-out: Bacteriostatic MIC95, S. aureus Mu50); 7.8 µg/mL in assay [1] (MU50, read-out: Bacteriostatic effect MIC, S. aureus Mu50); 5 µM in assay [1] (setting [9]); 2.5 µg/mL (≈ 1.73 µM) in assay [2].

In the case of Gentamycin, the “Bacteriostatic MIC95, S. aureus Mu50” value in assay [1] was over 500 µg/mL. For the same molecule, the “Bacteriostatic MIC95, B. anthracis Sterne” value in assay [2] (Table 2) worked out at 5 µg/mL.

Polymyxin B: the “Bacteriostatic MIC95, S. aureus Mu50” value in assay [1] was 15 µg/mL. For the same molecule, in assay [1] (Table 10 and text of Example 4), the “Bacteriostatic effect MIC, S. aureus Mu50” value turned out to be 31.3 µg/mL. For the same molecule, the “Bacteriostatic MIC95, B. anthracis Sterne” value in assay [2] (Table 2) was determined as 10 µg/mL.

Values taken from patent US9957247B2, “SecA inhibitors and methods of making and using thereof” (Georgia State University Research Foundation, Inc., priority 2012, dated 2018).
